Test results: patent publication US8637684B2, “Tautomycetin and tautomycetin analog biosynthesis” (Wisconsin Alumni Research Foundation, priority 2010, dated 2014)

Columns and labels:
SHP2 = target: T1, SHP2 (Homo sapiens, UniProt Q06124); assay: PTP activity assay with pNPP as substrate: SHP2; format: biochemical
T1 construct: The expression and purification of the SHP2 catalytic domain (residues 262-528) were described previously; made in house
T1 sequence (Q06124 262-528): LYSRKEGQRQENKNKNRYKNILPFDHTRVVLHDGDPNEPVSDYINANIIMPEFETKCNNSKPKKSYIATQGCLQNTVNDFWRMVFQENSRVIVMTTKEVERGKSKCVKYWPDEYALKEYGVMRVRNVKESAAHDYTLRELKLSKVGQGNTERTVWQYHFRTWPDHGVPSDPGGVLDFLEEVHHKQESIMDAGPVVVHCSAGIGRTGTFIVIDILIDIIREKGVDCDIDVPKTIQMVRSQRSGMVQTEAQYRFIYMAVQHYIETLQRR
Procedure: The effect of the compounds on PTP-catalyzed hydrolysis of p-nitrophenyl phosphate (pNPP) was assessed at pH 7 and 25° C. Members of the PTP superfamily that were included in the screen included the cytosolic PTPs, PTP1B, SHP1, SHP2, Lyp, HePTP, Meg2, and FAP1, the receptor-like PTPs, CD45, LAR, and PTPα, the dual specificity phosphatases VHR, VHX, and Cdc14, and the low molecular weight PTP.
Therefore, all of the IC50 values reported in this study directly reflect the true affinity of the compound for the enzymes tested.

[1] = system: panel of PTPs (PTP1B, SHP1, SHP2, Lyp, HePTP, Meg2, FAP1, CD45, LAR, PTPα, VHR, VHX, Cdc14, low molecular weight PTP); assay: Screen against a panel of PTPs at 10 μM compound (pNPP hydrolysis); format: biochemical; settings: pH 7, 25° C.
Procedure: The PTP activity was assayed using pNPP as a substrate at 25° C. in 50 mM 3,3-dimethylglutarate buffer, pH 7.0, containing 1 mM EDTA with an ionic strength of 0.15 M adjusted by NaCl. TTM, TTN and the engineered analogs were analyzed for inhibition of a panel of PTPs at 10 μM compound concentration. For each enzyme screened, test compounds were diluted to 20 μM in 100 μL and combined with 50 μL pNPP at a concentration of 4×Km. The reaction was initiated by the addition of 50 μL of 4× concentrated enzyme and pNPP was allowed to convert to the product p-nitrophenol. The reaction was quenched by the addition of 50 μL of 5N NaOH. Nonenzymatic hydrolysis of pNPP was corrected by measuring the control without the addition of enzyme. Production of p-nitrophenol was monitored by a Spectra MAX385 microplate spectrophotometer (Molecular Devices) at 405 nm using a molar extinction coefficient of 18,000 M^−1 cm^−1. IC50 values were calculated by fitting the absorbance at 405 nm versus inhibitor concentration to the following equation: AI/A0=IC50/(IC50+[I]) where AI is the absorbance at 405 nm of the sample in the presence of inhibitor; Ao is the absorbance at 405 nm in the absence of inhibitor; and [I] is the concentration of the inhibitor. […]

[2] = system: TCR-mediated tyrosine phosphorylation in Jurkat T cells; assay: Anti-CD3 (TCR) induced tyrosine phosphorylation in Jurkat T cells, immunoblot; format: cell-based; settings: 2-4 μM, 2 hours pretreatment, anti-CD3 stimulation
Procedure: (§1) Jurkat T cells were grown at 37° C. under an atmosphere of 5% CO2 in RPMI medium 1640 supplemented with 10% FBS. Cells were pretreated with different concentrations of TTN, TTN D-1, or TTM for 2 hours and stimulated with […] anti-CD3 antibody (OKT3; eBioscience) for 5 min and 30 min, respectively. Subsequently, cells were spinned down at 2000 rpm in 4° C., and cell pellets were lysed in 50 mM Tris-HCl (pH 7.5), 150 mM NaCl, 10% glycerol, 1% NP-40, 50 mM NaF, 10 mM pyrophosphate, 5 mM idoacetate, 1 mM sodium orthovanadate, and the protease inhibitor mixture. After 30 min lysing on ice, the cell lysates were centrifuged at 13,200 rpm for 15 min. Total cellular proteins were separated by SDS/PAGE and transferred electrophoretically to nitrocellulose membrane, which was immunoblotted by appropriate antibodies followed by incubation with HRP-conjugated secondary antibodies. Blots were developed using Pierce Pico ECL reagent (Thermo) according to the manufacturer's instructions.
(§2) TTN induces immunosuppression by suppression of TCR-mediated tyrosine phosphorylation and ERK1/2 activity in T cells (Shim et al., 2002). However, the mechanism of action for TTN's ability to block TCR signaling remains undefined. […]

[3] = system: TCR-mediated ERK1/2 activation in Jurkat T cells; assay: Anti-CD3 (TCR) induced ERK1/2 activation in Jurkat T cells, immunoblot; format: cell-based; settings: 2 hours pretreatment, anti-CD3 stimulation
Procedure: as §1, §2

PP1 = settings: literature values; cited from earlier work
PP2A = settings: literature values; cited from earlier work

Compound: CO[C@H]([C@H](O)CC(=O)[C@@H](C)[C@@H](O)CC[C@@H](C)[C@@H]1O[C@]2(CC[C@@H](C)[C@H](CC[C@H](C)C(C)=O)O2)CC[C@@H]1C)[C@H](OC(=O)C[C@@H](O)C1=C(C)C(=O)OC1=O)C(C)C [TTM, tautomycin, reference compound]
- SHP2 inhibitory activity (in words) (SHP2): does not inhibit SHP2 activity
- inhibitory activity against the panel of PTPs [1]: neither TTM nor its analogs exhibited any inhibitory activity
- effect on TCR-mediated tyrosine phosphorylation [2]: had no effect
- effect on TCR-mediated ERK1/2 activation [3]: no appreciable change
- IC50 (PP1): 0.022 to 0.032 µM
- IC50 (PP2A): 0.022 to 0.032 µM
